According to patent publication US4314055A, “3,5-Disubstituted-2,4,6-triiodoanilides of polyhydroxy-monobasic acids” (Mallinckrodt, Inc., priority 1977, dated 1982):
Values after ≈ are worked out from the molar mass of the structure shown. Like-named read-outs stand apart in the source and are kept apart here.

Legend:
water solubility = format: physicochemical
Procedure: A 15% w/v solution was prepared, seeded and stirred at room temperature.

Swiss Albino mice [1] = assay: Acute Intravenous Toxicity Studies in Mice; format: in vivo, mouse (Swiss Albino, Charles River)
Procedure: (§1) Toxicity evaluations in accordance with three different techniques were carried out on aqueous solutions of the compounds of Examples I, II, IV, V, VI, VIII, IX, X, XI and XII. The techniques utilized are described below.
1. Acute Intravenous Toxicity Studies in Mice
Except as noted below, Swiss Albino mice (Charles River) were dosed in the lateral tail vein with solutions of the above-noted iodinated compounds having an iodine concentration of 28.2% with a pH of 7.0-7.2. The solutions were injected at the rate of approximately 1 ml./min. In the case of the compound of Examples I, II and VI, supersaturated solutions having an iodine concentration of 10%, 28% and 28%, respectively, were employed. […] The LD50 values were calculated by the method of Litchfield and Wilcoxon (J. of Pharmac. and Exptl. Therap. 96:99-113, 1949).

dog [2] = assay: tested as a bronchographic agent in a dog; format: in vivo
Procedure: (§2) The compound of Example I was tested as a bronchographic agent in a dog with good results. The compound of Example II was employed in intravenous pyelographic studies carried out in dogs. At a dosage of 250 mg. […] At a dosage of 350 mg. […] At a dosage of 350 mg. […] At a dosage of 190 mg. […] The compound of Examples VIII and IX was employed in intrathecal myelographic studies carried out in dogs. At dosages of 282 to 2400 mg. […] The compound of Examples VIII and IX was employed in intracisternal toxicity studies carried out in dogs using the cisterna magna as the route of administration. At a dosage of 1410 mg. […] The compound of Example X was employed in intravenous pyelographic studies carried out in rats. At a dosage of 500 mg. […] At a dosage of 70 mg. […] In a separate study, the compound of Examples XI and XII was administered to dogs by intraspinal administration at a dosage of 70 mg. I/kg.

Swiss Albino mice [3] = assay: Intracerebral Toxicity in Mice; format: in vivo, mouse (Swiss Albino, Charles River)
Procedure: as §1
2. Intracerebral Toxicity in Mice
Swiss Albino mice (Charles River) were used. Fixed volumes of aqueous solutions of the iodinated compounds were injected intracerebrally via a 27-gauge needle (1/4 inch in length) according to the method of Haley et al. (Br. J. of Pharmac. 12:12-15, 1957). Again in the case of the compounds of Examples I, II and VI, supersaturated solutions were employed. In the case of the compound of Examples VIII and IX, solutions having an iodine concentration of 35% and 42%, respectively, were employed and in the case of the compound of Example X, a solution having an iodine concentration of 40% was employed. The animals were observed immediately following injections and daily throughout a seven day observation period. The LD50 values were calculated by the method of Litchfield and Wilcoxon (J. of Pharmac. and Exptl. Therap. 96:99-113, 1949).

[4] = tested on: Sprague-Dawley (Carworth) rats; assay: Intracisternal Toxicity in Rats; format: in vivo, rat (Sprague-Dawley; conditions: two day observation
Procedure: as §1
3. Intracisternal Toxicity in Rats
Sprague-Dawley (Carworth) rats were used. The method used was a variation of the procedure outlined by Melartin et al. (Invest. Rad. 5:13-21, 1970). In the case of the compound of Examples VIII and IX, solutions having an iodine concentration of 35% and 40%, respectively, were employed and in the case of the compound of Example X, a solution having an iodine concentration of 40% was employed. After dosing, the animals were housed individually and observed for immediate reactions and periodically for a two day observation period. The LD50 values were calculated according to the method of Litchfield and Wilcoxon (J. of Pharmac. and Exptl. Therap. 96:99-115, 1949).

dogs [5] = assay: intravenous pyelographic studies in dogs; format: in vivo, dog; conditions: 250 mg. I/kg.
Procedure: as §2

dog [6] = assay: urinary tract visualization after injection into a dog; format: in vivo
Procedure: as §2

rats = assay: intravenous pyelographic studies in rats; format: in vivo, rat; conditions: 500 mg. I/kg.
Procedure: as §2

dogs [7] = assay: intrathecal myelographic studies in dogs; format: in vivo, dog
Procedure: as §2

dogs [8] = assay: intracisternal toxicity studies in dogs (cisterna magna route); format: in vivo, dog; conditions: 1410 mg. I/kg.
Procedure: as §2

dogs [9] = assay: radiographs after intraspinal administration to dogs; format: in vivo, dog; conditions: 70 mg. I/kg.
Procedure: as §2

[10] = water, read-out: water solubility
[11] = supersaturated solution, seven day observation
[12] = supersaturated solution, iodine concentration 28%
[13] = iodine concentration 28.2%, pH 7.0-7.2, approx. 1 ml./min., seven-day observation
[14] = fixed volumes of aqueous solutions, seven day observation
[15] = water, initially, read-out: solubility, initial

CNC(=O)c1c(I)c(NC(=O)[C@H](O)[C@@H](O)[C@H](O)[C@H](O)CO)c(I)c(C(=O)NC)c1I [Example I, 5-D-Gluconamido-2,4,6-triiodo-N,N'-dimethylisophthalamide]
solubility (water solubility; [10]): 12 mg/mL (≈ 15.7 mM) | LD50 Value I.V. (Mice) (Swiss Albino mice [1]; supersaturated solution, iodine concentration 10%): > 10,000 mg. I/kg. body wt. | bronchographic agent test result (dog [2]): good results | LD50 Value Intracerebral (Mice) (Swiss Albino mice [3]; [11]): > 750 mg. I/kg. body wt. | LD50 Value Intracisternal (Rats) [4]: > 150 mg. I/kg. body wt.

CNC(=O)c1c(I)c(NC(=O)[C@H](O)[C@@H](O)[C@H](O)[C@H](O)CO)c(I)c(C(=O)N(C)C)c1I [Example II, 5-D-Gluconamido-2,4,6-triiodo-N,N,N'-trimethylisophthalamide]
solubility (water solubility; [10]): 284 mg/mL (≈ 365 mM) | LD50 Value I.V. (Mice) (Swiss Albino mice [1]; [12]): 8,085 mg. I/kg. body wt. | LD50 Value Intracerebral (Mice) (Swiss Albino mice [3]; [11]): 2,350 mg. I/kg. body wt. | LD50 Value Intracisternal (Rats) [4]: 100 mg. I/kg. body wt. | ureters and urinary bladder visualization (dogs [5]; five minutes after injection): the ureters and urinary bladder were visible | kidney visualization (dogs [5]; one minute after injection): kidney shadows were observed

CNC(=O)c1c(I)c(NC(=O)[C@H](O)[C@@H](O)[C@H](O)[C@H](O)CO)c(I)c(N(C)C(C)=O)c1I [Example IV, 3-D-Gluconamido-2,4,6-triiodo-N-methyl-5-(N-methylacetamido)-benzamide]
solubility (water solubility; [10]): ≥ 1000 mg/mL | LD50 Value I.V. (Mice) (Swiss Albino mice [1]; [13]): 6,400 mg. I/kg. body wt. | LD50 Value Intracerebral (Mice) (Swiss Albino mice [3]; [14]): 1,175 mg. I/kg. body wt. | LD50 Value Intracisternal (Rats) [4]: 75 mg. I/kg. body wt. | urinary bladder visualization (dog [6]; 350 mg. I/kd. (so in the source), 40 minutes after injection): gave a shadow of the urinary bladder

CNC(=O)c1c(I)c(C(=O)N(C)C)c(I)c(N(C)C(=O)[C@@H](O)[C@H](O)[C@H](O)[C@@H](O)C=O)c1I [Example V, 2,4,6-triiodo-N,N,N'-trimethyl-5-(N-methyl-D-galacturonamido)-isophthalamide]
solubility (water solubility; [10]): ≥ 1000 mg/mL | LD50 Value I.V. (Mice) (Swiss Albino mice [1]; [13]): 1,700 mg. I/kg. body wt. | LD50 Value Intracerebral (Mice) (Swiss Albino mice [3]; [14]): 1,700 mg. I/kg. body wt. | LD50 Value Intracisternal (Rats) [4]: 28 mg. I/kg. body wt. | kidney and ureter visualization (dog [6]; 350 mg. I/kg., 5 minutes after injection): gave a kidney shadow with partial visualization of the ureters

CNC(=O)c1c(I)c(NC(C)=O)c(I)c(NC(=O)[C@H](O)[C@@H](O)[C@H](O)[C@H](O)CO)c1I [Example VI, 3-acetamido-5-D-gluconamido-2,4,6-triiodo-N-methylbenzamide]
solubility (water solubility; [10]): 86 mg/mL (≈ 113 mM) | LD50 Value I.V. (Mice) (Swiss Albino mice [1]; [12]): 11,000 mg. I/kg. body wt. | LD50 Value Intracerebral (Mice) (Swiss Albino mice [3]; [11]): ~ 2,000 mg. I/kg. body wt. | LD50 Value Intracisternal (Rats) [4]: 180 mg. I/kg. body wt. | kidney and ureter visualization (dog [6]; 190 mg. I/kg., one minute after injection): gave a kidney shadow with partial visualization of the ureters

CNC(=O)c1c(I)c(CO)c(I)c(NC(=O)[C@H](O)[C@@H](O)[C@H](O)[C@H](O)CO)c1I [Example VII, 3-D-gluconamido-5-hydroxymethyl-2,4,6-triiodo-N-methylbenzamide]
solubility (water solubility; [10]): 18.6 mg/mL (≈ 25.3 mM)

CNC(=O)c1c(I)c(NC(=O)C(=O)[C@@H](O)[C@H](O)[C@@H](O)CO)c(I)c(N(CCO)C(C)=O)c1I [Example X, 3-[N-(2-hydroxyethyl)acetamido]-2,4,6-triiodo-5-(2-keto-L-gulonamido)-N-methylbenzamide]
solubility on standing (water solubility; after standing several days, analytical sample): a precipitate formed after standing several days | solubility, initial (water solubility; initially): 100 % (w/v) | solubility at 504 h (water solubility; water, after 21 days): 640 mg/mL (≈ 795 mM) | solubility (water solubility; [15]): 1000 mg/mL (≈ 1240 mM) | urinary bladder contrast (rats; 10 and 15 minutes after dosing): showed good contrast | collecting pelvis of the right kidney filling (rats; 10 minutes): showed good filling | kidney and ureter visualization (rats; five minutes after injection): faint kidney and portions of ureters were observed | LD50 Value I.V. (Mice) (Swiss Albino mice [1]; [13]): ~ 10,500 mg. I/kg. body wt. | LD50 Value Intracerebral (Mice) (Swiss Albino mice [3]; Iodine Conc. 40%): 2,500 mg. I/kg. body wt. | LD50 Value Intracisternal (Rats) ([4]; Iodine Conc. 40%): 405 mg. I/kg. body wt.

CNC(=O)c1c(I)c(NC(=O)[C@H](O)[C@@H](O)[C@H](O)[C@H](O)CO)c(I)c(N(CCO)C(C)=O)c1I [Examples VIII and IX, 3-gluconamido-5-[N-(2-hydroxyethyl)acetamido]-2,4,6-triiodo-N-methylbenzamide]
filling of subarachnoid space (dogs [7]; intrathecal, 282 to 2400 mg. I/kg., extent depending on volume injected and size of animal): good filling of the subarachnoid space from the cul-de-sac to the thoracic, cervical and cisterna magna | solubility (water solubility; water, printed as slightly less than, read-out: aqueous solubility): < 1000 mg/mL | LD50 Value I.V. (Mice) (Swiss Albino mice [1]; Iodine Conc. 40%): 14,500 mg. I/kg. body wt. | LD50 Value I.V. (Mice) (Swiss Albino mice [1]; [13]): > 13,000 mg. I/kg. body wt. | subarachnoid space filling (dogs [8]): partial filling of the cerebral subarachnoid space and good cervical and thoracic subarachnoid space filling | LD50 Value Intracerebral (Mice) (Swiss Albino mice [3]; Iodine Conc. 35%): > 2,679 mg. I/kg. body wt. | LD50 Value Intracerebral (Mice) (Swiss Albino mice [3]; Iodine Conc. 42%): 2,200 mg. I/kg. body wt. | LD50 Value Intracisternal (Rats) ([4]; Iodine Conc. 35%): > 505 mg. I/kg. body wt. | LD50 Value Intracisternal (Rats) ([4]; Iodine Conc. 40%): 590 mg. I/kg. body wt.

CNC(=O)c1c(I)c(NC(=O)[C@H](O)[C@@H](O)[C@H](O)[C@H](O)CO)c(I)c(NC(=O)[C@H](O)[C@@H](O)[C@H](O)[C@H](O)CO)c1I [Examples XI and XII, 3,5-bis-D-gluconamido-2,4,6-triiodo-N-methylbenzamide]
radiographs, filling (dogs [7]; intrathecal injection, 70 mg. I/kg.): fair filling with some degree of scalloping | turbidity of solution (water solubility; 15% w/v solution, seeded and stirred at room temperature): turbidity developed within two hours | solubility thermodynamic (water solubility; water, 15% w/v solution seeded, stirred at room temperature, filtered, filtrate aliquot evaporated to constant weight at 85° C.): 120 mg/mL (≈ 133 mM) | solubility at 24 h (water solubility; water, after 24 hr., read-out: aqueous solubility after 24 hr.): < 150 mg/mL | solubility (water solubility; [15]): 1000 mg/mL (≈ 1110 mM) | LD50 Value I.V. (Mice) (Swiss Albino mice [1]; [13]): 20,500 mg. I/kg. body wt. | radiographs, definition of lumbar and sacral spinal spaces (dogs [9]): the lumbar and sacral spinal spaces were well defined | LD50 Value Intracerebral (Mice) (Swiss Albino mice [3]; [14]): 1,330 mg. I/kg. body wt. | LD50 Value Intracisternal (Rats) [4]: > 560 mg. I/kg. body wt.

CNC(=O)c1c(I)c(NC(=O)C(=O)[C@@H](O)[C@H](O)[C@@H](O)CO)c(I)c(C(=O)N(C)C)c1I [III, 2,4,6-Triiodo-5-(2-keto-L-gulonamido)-N,N,N'-trimethylisophthalamide]
solubility (water solubility; [10]): 37.5 mg/mL (≈ 48.4 mM)
